# Assay results from US11186874B2, “ERK1 and ERK2 mutations that confer resistance to MAPK pathway inhibitors” (Dana-Farber Cancer Institute, Inc., priority 2014, dated 2021).
# What was measured:
# ERK2 [1] = assay: IP kinase assay, V5-tagged ERK2, phosphorylation of recombinant ELK-1 peptide; assay type: biochemical, human; conditions: for ERK kinase activity of ERK inhibitor resistance alleles in the presence of inhibitor: ERK2 resistance alleles, FIG. 3B, FIG. 10B
# Method: (§1) Phosphorylation of ELK-1 (at serine 383) was measured by Western blotting.
# (§2) ERK1 and ERK2 open constructs were transferred into DEST40 (C-terminal V5 tag) vector (Invitrogen) using LR clonase II. A375 cells were transiently transfected with V5-tagged ERK1 or ERK2 constructs using X-tremeGENE HP (Roche). […] Reactions were stopped with the addition on 3× SDS loading buffer. Samples were boiled and supernatant was run on SDS-PAGE gel for western blotting.
# ERK1/2 = assay: Western blotting of ERK signaling in A375 cells expressing ERK1/2 alleles; assay type: cell-based; conditions: for ERK signaling (RSK phosphorylation, DUSP6, cyclin D1) in the presence of ERK inhibitor: ten ERK inhibitor resistance alleles, DOX, 24 h
# Method: Cells were exposed to DOX with or without MAPK inhibitor at the same doses used in the screen for 24 h, then harvested in RIPA buffer, and run on SDS-PAGE. Proteins were transferred to PVDF membranes and analyzed using the following antibodies phosphoERK1/2, ERK1/2, phosphoELK-1 S383 (Santa Cruz), phosphoRSK (S380), RSK, tubulin, DUSP6 (Cell Signaling), cyclin D1 (Thermo Scientific), and V5 (Abcam). Relative expression was calculated by comparing densities of bands of phoshoELK-1 to total ERK (or V5). Values were normalized to untreated WT, which was set at 1.
# A375 cells = assay: MTS growth assay of A375 cells expressing DOX-inducible ERK1/2 alleles in the presence of MAPK pathway inhibitors; assay type: cell-based
# Description: To verify their resistance effects, we engineered the relevant mutations for highly mutated alleles or for low frequency alleles that were analogous between ERK1 and ERK2 within the coding sequence of ERK1 or ERK2 by site directed mutagenesis in the doxycycline-inducible vector. […] Here, we defined validation as a >4-fold increase in cell growth conferred by DOX-induced mutant ERK expression compared to control cells cultured without DOX (FIG. 2A, Table 4, FIG. 8G).
# A375, WM266.4, or SKmel19 cells were plated in 96-well plates, with six replicates for each drug. Drugs were added the next day with or without DOX. Cell growth was analyzed 72-96 hours later by MTS assay (Promega). The inhibitor concentrations were the same as the screen. […] Growth was normalized to DMSO, NO-DOX controls, and graphed as percent growth. Heatmaps were created from growth assays using GENE-E (Available on the World Wide Web at broadinstitute.org/cancer/software/GENE-E/download.html). For some growth assays, a half-log dose response curve was generated to determine sensitivity. The concentration of DMSO was 0.1%.
# ERK2 [2] = molecular target: T1, ERK2 (Homo sapiens, UniProt P28482); assay: IP kinase assay, V5-tagged ERK2, phosphorylation of recombinant ELK-1 peptide; assay type: biochemical; conditions: wild type ERK2; VX-11e 0.1 μM added during the kinase assay
# T1 construct: made in house; host or cells: A375 cells, transient transfection; captured on V5-agarose beads
# Method: as §1, §2
# ERK1 [3] = assay: IP kinase assay, V5-tagged ERK1, phosphorylation of recombinant ELK-1 peptide; assay type: biochemical, human; conditions: ERK1 alleles; trametinib 3 nM, 4 h, added to cells prior to harvest
# ERK1 [4] = molecular target: T2, ERK1 (Homo sapiens, UniProt P27361, Y148H); assay: as above; assay type: biochemical; conditions: ERK1^Y148; trametinib 3 nM, 4 h
# T2 construct: made in house; host or cells: A375 cells, transient transfection; captured on V5-agarose beads
# T2 sequence (P27361 2-379 Y148H): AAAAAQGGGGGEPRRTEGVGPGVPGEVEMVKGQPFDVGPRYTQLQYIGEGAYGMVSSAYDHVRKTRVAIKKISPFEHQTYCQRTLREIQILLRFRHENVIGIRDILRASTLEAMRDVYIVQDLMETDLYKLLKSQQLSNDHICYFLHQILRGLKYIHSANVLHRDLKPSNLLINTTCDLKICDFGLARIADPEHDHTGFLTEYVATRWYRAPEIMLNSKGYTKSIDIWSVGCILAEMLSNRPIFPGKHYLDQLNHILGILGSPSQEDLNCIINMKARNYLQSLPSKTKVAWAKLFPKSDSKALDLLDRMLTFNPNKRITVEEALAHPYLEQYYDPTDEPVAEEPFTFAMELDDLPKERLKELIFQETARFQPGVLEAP
# T1 sequence (P28482 2-360): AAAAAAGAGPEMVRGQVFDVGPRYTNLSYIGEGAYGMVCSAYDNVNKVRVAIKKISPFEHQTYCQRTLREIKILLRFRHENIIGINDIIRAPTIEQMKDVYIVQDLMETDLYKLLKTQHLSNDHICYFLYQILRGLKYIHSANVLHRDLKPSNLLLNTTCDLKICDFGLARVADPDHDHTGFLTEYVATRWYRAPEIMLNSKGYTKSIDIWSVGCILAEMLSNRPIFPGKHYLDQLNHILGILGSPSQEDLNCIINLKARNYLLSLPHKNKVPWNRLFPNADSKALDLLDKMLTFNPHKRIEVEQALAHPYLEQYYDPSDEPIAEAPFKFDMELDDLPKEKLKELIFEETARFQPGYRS
SMILES,ERK kinase activity of ERK inhibitor resistance alleles in the presence of inhibitor (ERK2 [1]),"phosphorylation of ERK2-resistant alleles (ERK1/2; A375, ERK inhibitor resistant ERK2 alleles)","ERK signaling (RSK phosphorylation, DUSP6, cyclin D1) in the presence of ERK inhibitor (ERK1/2; A375)","phosphorylation of wild type ERK1/2 (ERK1/2; A375, wild type ERK1/2)","growth advantage (A375 cells; ERK1^Y53H, 0.5 μM SCH772984)","increase in cell growth (A375 cells; ERK1^Y53H, 1 μM SCH772984)","increase in cell growth with allele expression (A375 cells; selected VX-11e-resistant ERK1 and ERK2 alleles, SCH772984)",ELK-1 phosphorylation (serine 383) induced by wild type ERK2 (ERK2 [2]),ERK phosphorylation (ERK1/2; any context examined),"increase in cell growth conferred by DOX-induced mutant ERK expression compared to control cells cultured without DOX (A375 cells; 16 validated of 20 candidate ERK1/2 resistance alleles, VX-11e 2 μM)","effect on growth in the presence of the ERK inhibitor (A375 cells; kinase-dead ERK1 and ERK2 and GFP, VX-11e 2 μM)","growth advantage in the presence of the ERK inhibitor (A375 cells; wild-type ERK1 and ERK2, VX-11e 2 μM)","residual kinase activity of common docking domain mutants compared to other alleles (ERK2 [1]; ERK2^Y131, ERK2^D321G, ERK2^E322K, trametinib 3 nM, 4 h)","ERK kinase activity (ELK-1 peptide phosphorylation) of RAF/MEK inhibitor resistant alleles in the presence of MEK inhibitor (ERK2 [1]; ERK2 alleles, trametinib 3 nM, 4 h, added to cells prior to harvest)",ERK kinase activity (ELK-1 peptide phosphorylation) of RAF/MEK inhibitor resistant alleles in the presence of MEK inhibitor (ERK1 [3]),residual kinase activity of common docking domain mutants compared to other alleles (ERK1 [4])
O=C(Nc1ccc2[nH]nc(-c3ccncc3)c2c1)[C@@H]1CCN(CC(=O)N2CCN(c3ccc(-c4ncccn4)cc3)CC2)C1 [SCH772984],maintained ERK kinase activity,no effect,maintained,decreased,5 fold,2.5 fold,over 4 fold,–,–,–,–,–,–,–,–,–
Cc1cnc(Nc2ccc(F)cc2Cl)nc1-c1c[nH]c(C(=O)N[C@H](CO)c2cccc(Cl)c2)c1 [VX-11e],maintained ERK kinase activity,–,sustained ERK signaling,–,–,–,–,completely blocked,no effect,> 4 fold,no effect,1.5 fold,–,–,–,–
CC(=O)Nc1cccc(-n2c(=O)n(C3CC3)c(=O)c3c(Nc4ccc(I)cc4F)n(C)c(=O)c(C)c32)c1 [trametinib],–,–,–,–,–,–,–,–,–,–,–,–,diminished residual kinase activity,maintained ERK kinase activity,maintained ERK kinase activity,diminished residual kinase activity
